# Tested on: 636577-100-R-J1-PDC complex spheroid viability
# Assay: Anticancer human tumor 636577-100-R-J1-PDC patient-derived endometrial adenocarcinoma cell line growth inhibition [GQUAD]
# Details: for IC50: curve of first compound; for viability, T/C: stronger effect = lower value
# Summary of the method: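 Tumor cells were grown as complex spheroids with HUVEC endothelial cells and mesenchymal stem cells as stroma. G-quadruplex stabilizers were combined with targeted agents over half-log dilutions from near the clinical Cmax, or from 10 microM.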
# [1] = second compound 0.0316 µM, first compound 0.0316 µM
# [2] = second compound 0.0316 µM, first compound 0.1 µM
# [3] = second compound 0.0316 µM, first compound 0.316 µM
# [4] = second compound 0.0316 µM, first compound 1 µM
# [5] = second compound 0.0316 µM, first compound 3.16 µM
# [6] = second compound 0.0316 µM, first compound 10 µM
# [7] = second compound 0.1 µM, first compound 0.0316 µM
# [8] = second compound 0.1 µM, first compound 0.1 µM
# [9] = second compound 0.1 µM, first compound 0.316 µM
# [10] = second compound 0.1 µM, first compound 1 µM
# [11] = second compound 0.1 µM, first compound 3.16 µM
# [12] = second compound 0.1 µM, first compound 10 µM
# [13] = second compound 0.316 µM, first compound 0.0316 µM
# [14] = second compound 0.316 µM, first compound 0.1 µM
# [15] = second compound 0.316 µM, first compound 0.316 µM
# [16] = second compound 0.316 µM, first compound 1 µM
# [17] = second compound 0.316 µM, first compound 3.16 µM
# [18] = second compound 0.316 µM, first compound 10 µM
# [19] = second compound 1 µM, first compound 0.0316 µM
# [20] = second compound 1 µM, first compound 0.1 µM
# [21] = second compound 1 µM, first compound 0.316 µM
# [22] = second compound 1 µM, first compound 1 µM
# [23] = second compound 1 µM, first compound 3.16 µM
# [24] = second compound 1 µM, first compound 10 µM
# [25] = second compound 3.16 µM, first compound 0.0316 µM
# [26] = second compound 3.16 µM, first compound 0.1 µM
# [27] = second compound 3.16 µM, first compound 0.316 µM
# [28] = second compound 3.16 µM, first compound 1 µM
# [29] = second compound 3.16 µM, first compound 3.16 µM
# [30] = second compound 3.16 µM, first compound 10 µM
# [31] = second compound 10 µM, first compound 0.0316 µM
# [32] = second compound 10 µM, first compound 0.1 µM
# [33] = second compound 10 µM, first compound 0.316 µM
# [34] = second compound 10 µM, first compound 1 µM
# [35] = second compound 10 µM, first compound 3.16 µM
# [36] = second compound 10 µM, first compound 10 µM
# 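Note: viability read after seven days of drug exposure.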
# 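Throughout, for viability, T/C: luminescence signal used as a proxy for viable cells; 100% = DMSO vehicle control wells.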
smiles,measurement,setting,value
C=CC(=O)N1CCN(c2nc(=O)n(-c3c(C)ccnc3C(C)C)c3nc(-c4c(O)cccc4F)c(F)cc23)C(C)C1 (stereo unspecified) + CN(C)c1ccc(Nc2c3ccc(NC(=O)CCN4CCCC4)cc3nc3cc(NC(=O)CCN4CCCC4)ccc23)cc1,IC50,second compound 0.0316 µM,> 10000 nM
same,IC50,second compound 0.1 µM,> 10000 nM
same,IC50,second compound 0.316 µM,> 10000 nM
same,IC50,second compound 1 µM,> 10000 nM
same,IC50,second compound 3.16 µM,< 31.6 nM
same,IC50,second compound 10 µM,< 31.6 nM
same,"viability, T/C",[1],82.5%
same,"viability, T/C",[2],60.8%
same,"viability, T/C",[3],114%
same,"viability, T/C",[4],75.2%
same,"viability, T/C",[5],91.9%
same,"viability, T/C",[6],64.8%
same,"viability, T/C",[7],73.5%
same,"viability, T/C",[8],67.1%
same,"viability, T/C",[9],78.9%
same,"viability, T/C",[10],73%
same,"viability, T/C",[11],108%
same,"viability, T/C",[12],75.6%
same,"viability, T/C",[13],79.5%
same,"viability, T/C",[14],63.9%
same,"viability, T/C",[15],88%
same,"viability, T/C",[16],81.2%
same,"viability, T/C",[17],97.5%
same,"viability, T/C",[18],67.4%
same,"viability, T/C",[19],85.9%
same,"viability, T/C",[20],54.3%
same,"viability, T/C",[21],76.3%
same,"viability, T/C",[22],96.9%
same,"viability, T/C",[23],94.5%
same,"viability, T/C",[24],60.3%
same,"viability, T/C",[25],42%
same,"viability, T/C",[26],43.9%
same,"viability, T/C",[27],35.4%
same,"viability, T/C",[28],53.6%
same,"viability, T/C",[29],43.7%
same,"viability, T/C",[30],28.9%
same,"viability, T/C",[31],6.52%
same,"viability, T/C",[32],5.91%
same,"viability, T/C",[33],6.86%
same,"viability, T/C",[34],6.43%
same,"viability, T/C",[35],3.58%
same,"viability, T/C",[36],0.96%
Nc1ccn(C2OC(CO)C(O)C2(F)F)c(=O)n1 (stereo unspecified) + Cc1cnc(CNC(=O)c2c(=O)c3ccc(N4CCCN(C)CC4)nc3n3c2sc2ccccc23)cn1,IC50,second compound 0.0316 µM,< 31.6 nM
same,IC50,second compound 0.1 µM,< 31.6 nM
same,IC50,second compound 0.316 µM,< 31.6 nM
same,IC50,second compound 1 µM,< 31.6 nM
same,IC50,second compound 3.16 µM,< 31.6 nM
same,IC50,second compound 10 µM,< 31.6 nM
same,"viability, T/C",[1],15.9%
same,"viability, T/C",[2],13.3%
same,"viability, T/C",[3],15%
same,"viability, T/C",[4],12.4%
same,"viability, T/C",[5],13.6%
same,"viability, T/C",[6],12.1%
same,"viability, T/C",[7],17.9%
same,"viability, T/C",[8],13.8%
same,"viability, T/C",[9],16.3%
same,"viability, T/C",[10],13.3%
same,"viability, T/C",[11],16.2%
same,"viability, T/C",[12],14.6%
same,"viability, T/C",[13],17.6%
same,"viability, T/C",[14],15.1%
same,"viability, T/C",[15],16.5%
same,"viability, T/C",[16],15.2%
same,"viability, T/C",[17],16.3%
same,"viability, T/C",[18],13.9%
same,"viability, T/C",[19],14.7%
same,"viability, T/C",[20],14.8%
same,"viability, T/C",[21],16.6%
same,"viability, T/C",[22],17.5%
same,"viability, T/C",[23],16.6%
same,"viability, T/C",[24],15.3%
same,"viability, T/C",[25],15.4%
same,"viability, T/C",[26],16.5%
same,"viability, T/C",[27],17.9%
same,"viability, T/C",[28],17.7%
same,"viability, T/C",[29],17.6%
same,"viability, T/C",[30],12.7%
same,"viability, T/C",[31],18.2%
same,"viability, T/C",[32],13.8%
same,"viability, T/C",[33],18.1%
same,"viability, T/C",[34],16.4%
same,"viability, T/C",[35],16.3%
same,"viability, T/C",[36],13.5%
C=CCn1c(=O)c2cnc(Nc3ccc(N4CCN(C)CC4)cc3)nc2n1-c1cccc(C(C)(C)O)n1 + CN(C)c1ccc(Nc2c3ccc(NC(=O)CCN4CCCC4)cc3nc3cc(NC(=O)CCN4CCCC4)ccc23)cc1,IC50,second compound 0.0316 µM,598 nM
same,IC50,second compound 0.1 µM,304 nM
same,IC50,second compound 0.316 µM,382 nM
same,IC50,second compound 1 µM,353 nM
same,IC50,second compound 3.16 µM,< 31.6 nM
same,IC50,second compound 10 µM,< 31.6 nM
same,"viability, T/C",[1],88.3%
same,"viability, T/C",[2],67.3%
same,"viability, T/C",[3],81.4%
same,"viability, T/C",[4],26.6%
same,"viability, T/C",[5],15.9%
same,"viability, T/C",[6],9.28%
same,"viability, T/C",[7],107%
same,"viability, T/C",[8],73.6%
same,"viability, T/C",[9],51.7%
same,"viability, T/C",[10],28.9%
same,"viability, T/C",[11],15.1%
same,"viability, T/C",[12],9.88%
same,"viability, T/C",[13],88.3%
same,"viability, T/C",[14],69.2%
same,"viability, T/C",[15],57.7%
same,"viability, T/C",[16],30.9%
same,"viability, T/C",[17],15.2%
same,"viability, T/C",[18],9.64%
same,"viability, T/C",[19],48.6%
same,"viability, T/C",[20],63%
same,"viability, T/C",[21],52.1%
same,"viability, T/C",[22],32%
same,"viability, T/C",[23],19.2%
same,"viability, T/C",[24],11.6%
same,"viability, T/C",[25],37.6%
same,"viability, T/C",[26],36.8%
same,"viability, T/C",[27],30.9%
same,"viability, T/C",[28],23.8%
same,"viability, T/C",[29],16.5%
same,"viability, T/C",[30],10.8%
same,"viability, T/C",[31],5.9%
same,"viability, T/C",[32],4.13%
same,"viability, T/C",[33],3.79%
same,"viability, T/C",[34],3.8%
same,"viability, T/C",[35],2.91%
same,"viability, T/C",[36],0.74%
